# Literature values as cited in patent US20040062779A1, “Dermatologic composition using ultra-fine/micronized 1-ascorbic acid and other antioxidant ingredients in a stabilized anhydrous vehicle” (priority 2002, published 2004).
# Test system: collagen synthesis
# Conditions: in-vitro; Pinnell, Yale J. Biol. Med. 58:554 (1985)
smiles,measurement,value
O=C1O[C@H]([C@@H](O)CO)C(O)=C1O [ascorbic acid],collagen synthesis,stimulates collagen synthesis
